According to ChEMBL document CHEMBL1201862, “PubChem BioAssay data set” (2004):
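Cultured in 96-well plates, cells were exposed to test compound for 48 hours across five concentrations. At the GI50, growth is halved.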 Active and inactive are the calls of the source. Rule as the data show it: active = GI50 up to about 1.1 µM and inactive = higher.

What was measured:
Experiment in all cases: DTP human tumour cell line panel, 48 h
HL-60 = test system: HL-60
SN12C = test system: SN12C
NCI-H226 = test system: NCI-H226
NCI-H23 = test system: NCI-H23
SR = test system: SR
MDA-MB-231 = test system: MDA-MB-231
OVCAR-4 = test system: OVCAR-4
EKVX = test system: EKVX
SK-MEL-2 = test system: SK-MEL-2
MDA-MB-435 = test system: MDA-MB-435
COLO 205 = test system: COLO 205
LOX IMVI = test system: LOX IMVI
A549 = test system: A549
SW-620 = test system: SW-620
DU-145 = test system: DU-145
NCI/ADR-RES = test system: NCI/ADR-RES
PC-3 = test system: PC-3
MCF7 = test system: MCF7
NCI-H522 = test system: NCI-H522

Measured: GI50

C=CCOC(OCC=C)/C(Br)=C/C
inactive: HL-60 41 µM | SN12C > 100 µM | NCI-H226 > 100 µM | NCI-H23 31 µM | SR > 100 µM | MDA-MB-231 > 100 µM | OVCAR-4 24.5 µM | EKVX 35.9 µM | SK-MEL-2 68.2 µM | MDA-MB-435 26.9 µM | COLO 205 19.2 µM | LOX IMVI 16.5 µM | A549 > 100 µM | SW-620 37.5 µM | DU-145 55.2 µM | NCI/ADR-RES 31 µM | PC-3 93.1 µM | MCF7 28.3 µM

COC(=O)C(C)(NC(=O)C(CC(=O)OC(C)(C)C)NC(=O)OC(C)(C)C)c1ccccc1 (centres undefined)
inactive: HL-60 81.7 µM | SN12C > 100 µM | NCI-H226 > 100 µM | NCI-H23 > 100 µM | SR 73.5 µM | MDA-MB-231 > 100 µM | NCI-H522 > 100 µM | EKVX > 100 µM | MDA-MB-435 > 100 µM | COLO 205 > 100 µM | LOX IMVI > 100 µM | A549 > 100 µM | SW-620 > 100 µM | DU-145 > 100 µM | NCI/ADR-RES 55.1 µM | PC-3 > 100 µM | MCF7 62.1 µM

O=c1oc2ccccc2n1CCN1CCCCC1
inactive: HL-60 > 100 µM | SN12C > 100 µM | NCI-H226 > 100 µM | NCI-H23 > 100 µM | SR > 100 µM | MDA-MB-231 > 100 µM | EKVX > 100 µM | SK-MEL-2 > 100 µM | MDA-MB-435 > 100 µM | COLO 205 > 100 µM | LOX IMVI > 100 µM | SW-620 > 100 µM | DU-145 > 100 µM | NCI/ADR-RES > 100 µM | PC-3 > 100 µM | MCF7 > 100 µM

CC[C@]12C=CCN3CCC4(c5cc(/N=N/c6ccc([N+](=O)[O-])cc6)c(OC)cc5N(C)[C@H]4[C@@](O)(C(=O)OC)[C@@H]1OC(C)=O)[C@@H]32 (some centres undefined)
inactive: HL-60 7.31 µM | SN12C 23.8 µM | NCI-H226 5.5 µM | NCI-H23 10.5 µM | SR 9.71 µM | MDA-MB-231 9.59 µM | OVCAR-4 9.59 µM | EKVX 9.86 µM | SK-MEL-2 13 µM | MDA-MB-435 11.7 µM | COLO 205 4.63 µM | LOX IMVI 16.3 µM | A549 15.3 µM | SW-620 2.56 µM | DU-145 22.8 µM | NCI/ADR-RES 7.18 µM | PC-3 4.26 µM | MCF7 11.6 µM

ClCCN1CCC2(CC1)SSC1(CCN(CCCl)CC1)S2
inactive: HL-60 30.7 µM | SN12C 26.2 µM | NCI-H23 49.7 µM | SR 7.74 µM | MDA-MB-231 57.5 µM | OVCAR-4 35.2 µM | SK-MEL-2 > 100 µM | MDA-MB-435 73.6 µM | COLO 205 15.8 µM | LOX IMVI 31.8 µM | A549 89.9 µM | SW-620 76.6 µM | DU-145 37.2 µM | NCI/ADR-RES 49.7 µM | PC-3 30.1 µM | MCF7 11.6 µM

COc1ccc2c(=O)c3c([nH]c2c1)OCC3=O
inactive: HL-60 > 100 µM | NCI-H226 > 100 µM | NCI-H23 > 100 µM | SR > 100 µM | MDA-MB-231 > 100 µM | OVCAR-4 > 100 µM | EKVX > 100 µM | SK-MEL-2 > 100 µM | MDA-MB-435 > 100 µM | COLO 205 > 100 µM | LOX IMVI > 100 µM | SW-620 > 100 µM | DU-145 > 100 µM | NCI/ADR-RES > 100 µM | PC-3 > 100 µM | MCF7 > 100 µM

Cc1ccc2nc(-n3c(/C=C/c4ccccc4O)nc4ccccc4c3=O)sc2c1
inactive: HL-60 > 100 µM | NCI-H226 > 100 µM | NCI-H23 > 100 µM | MDA-MB-231 > 100 µM | OVCAR-4 > 100 µM | NCI-H522 > 100 µM | EKVX 19.8 µM | SK-MEL-2 > 100 µM | MDA-MB-435 > 100 µM | COLO 205 > 100 µM | LOX IMVI > 100 µM | A549 > 100 µM | SW-620 > 100 µM | DU-145 > 100 µM | NCI/ADR-RES > 100 µM | PC-3 > 100 µM | MCF7 > 100 µM

Clc1ccc(/C=N/c2ccc(Oc3ccc(Cl)cc3)c(Cl)c2)cc1
inactive: HL-60 23.3 µM | SN12C 19.5 µM | NCI-H226 35.3 µM | NCI-H23 23.5 µM | MDA-MB-231 22 µM | OVCAR-4 25.3 µM | NCI-H522 14.3 µM | EKVX 27.8 µM | SK-MEL-2 22.1 µM | MDA-MB-435 29.7 µM | COLO 205 21.6 µM | LOX IMVI 18.8 µM | A549 22.3 µM | SW-620 31 µM | DU-145 30.8 µM | NCI/ADR-RES 20.8 µM | PC-3 22.1 µM | MCF7 30.8 µM

CN(CCNC(=O)c1nn(-c2ccccc2)c2c1ccc1ccccc12)CCNC(=O)c1nn(-c2ccccc2)c2c1ccc1ccccc12
inactive: HL-60 1.95 µM | SN12C 1.88 µM | NCI-H226 2.29 µM | NCI-H23 2.51 µM | MDA-MB-231 1.29 µM | OVCAR-4 3.39 µM | NCI-H522 2.04 µM | EKVX 1.98 µM | SK-MEL-2 1.86 µM | MDA-MB-435 1.97 µM | COLO 205 1.54 µM | LOX IMVI 1.77 µM | A549 2.94 µM | SW-620 2.17 µM | DU-145 4.85 µM | NCI/ADR-RES 2.55 µM | PC-3 2.13 µM | MCF7 1.98 µM

Nc1ncnc2c1ncn2C1CCC(COS(N)(=O)=O)C1 (centres undefined)
inactive: HL-60 31.1 µM | SN12C > 100 µM | NCI-H226 > 100 µM | NCI-H23 > 100 µM | SR 56.4 µM | MDA-MB-231 > 100 µM | OVCAR-4 > 100 µM | EKVX > 100 µM | SK-MEL-2 > 100 µM | MDA-MB-435 > 100 µM | COLO 205 > 100 µM | LOX IMVI 37 µM | A549 > 100 µM | SW-620 > 100 µM | DU-145 > 100 µM | NCI/ADR-RES > 100 µM | PC-3 > 100 µM | MCF7 58.7 µM

COC(CN(C)C(=O)C(C)NC(=O)c1ccccc1)OC (centres undefined)
inactive: SN12C > 100 µM | NCI-H226 > 100 µM | NCI-H23 > 100 µM | SR > 100 µM | MDA-MB-231 > 100 µM | OVCAR-4 > 100 µM | NCI-H522 > 100 µM | EKVX > 100 µM | SK-MEL-2 > 100 µM | MDA-MB-435 > 100 µM | COLO 205 > 100 µM | A549 > 100 µM | SW-620 > 100 µM | DU-145 > 100 µM | NCI/ADR-RES > 100 µM | PC-3 > 100 µM | MCF7 > 100 µM
